Experimental data published in US9745299B2, “Substituted tricyclic benzimidazoles as kinase inhibitors” (SELVITA SA, priority 2012, dated 2017).
Structures can show the parent of a compound that is named as a salt.

Key:
CDK2/CyclinE = biological target: T1, CDK2/CyclinE (Homo sapiens, UniProt P24941); experiment: ADP-Glo Kinase Assay, CDK2/CyclinE; assay type: biochemical; details: read-out: % inhibition at 1 μM CDK2/CyclinE
T1 construct: purchased Millipore, Billerica, Mass., USA
Protocol: (§1) Testing of the compounds described in this invention was carried out using the ADP-Glo™ Kinase Assay from Promega Corporation (Madison, Wis., USA).
(§2) The ADP-Glo™ Kinase Assay is a luminescent ADP detection assay to measure kinase activity by quantifying the amount of ADP produced during a kinase reaction. The kinase assay is performed in kinase assay buffer (5 mM MOPS, pH 7.5, 5 mM MgCl2, 0.4 mM EDTA, 1.5 mM DTT). Test samples initially dissolved in DMSO at 10 mM were diluted with the assay buffer to 1000 nM. A 30 μL volume/well of a mixture of substrates containing ATP (final ATP concentration in each kinase assay was equal to its apparent ATP Km).
(§3) The assay was performed in two steps: first, after the kinase reaction, an equal volume of ADP-Glo™ Reagent was added to terminate the kinase reaction and deplete the remaining ATP. Second, the Kinase Detection Reagent was added to simultaneously convert ADP to ATP and allowed the newly synthesized ATP to be measured using a luciferase/luciferin reaction. The luminescent signal generated was proportional to the ADP concentration produced and was correlated with kinase activity.

CDK5/p25 = biological target: T2, CDK5/p25 (Homo sapiens, UniProt Q00535); experiment: ADP-Glo Kinase Assay, CDK5/p25; assay type: biochemical; details: read-out: % inhibition at 1 μM CDK5/p25; further: ATP at apparent Km (12 µM)
T2 construct: purchased Millipore, Billerica, Mass., USA
Protocol: as §1, §2, §3

CDK7/CyclinH/MAT1 = biological target: T3, CDK7/CyclinH/MAT1 (Homo sapiens, UniProt P50613); experiment: ADP-Glo Kinase Assay, CDK7/CyclinH/MAT1; assay type: biochemical; details: read-out: % inhibition at 1 μM CDK7/CyclinH/MAT1
T3 construct: purchased Millipore, Billerica, Mass., USA
Protocol: as §1, §2, §3

CDK8/CyclinC = biological target: T4, CDK8/CyclinC (Homo sapiens, UniProt P49336); experiment: ADP-Glo Kinase Assay, CDK8/CyclinC; assay type: biochemical; details: read-out: % inhibition at 1 μM CDK8/CyclinC; further: ATP at apparent Km (53 µM)
T4 construct: purchased ProQinase, Freiburg, Germany
Protocol: as §1, §2, §3

HCT116 cells = experiment: MTS viability assay, HCT116; assay type: cell-based; details: Homo sapiens, HCT-116, HCT116, 72 hour incubation, read-out: IC50 [μM] HCT116 ED50
Excerpt: (§4) The viability of CDK8 expressing cells can be evaluated using a tetrazolium salt reduction cell-based assay. In viable cells this colorimetric assay can measure mitochondrial reduction of a tetrazolium component (MTS) into an […] formazan product. For MTS viability assay, human colon cancer cell lines were used (SW480 and HCT116 cell lines), containing elevated levels of CDK8 protein and highly dependent on its expression for proliferation [see, Firenstein et al. Nature 455 (25):547-551, (2008)]. These cell lines were used to determine the activity of the compounds provided herein to inhibit CDK8 in intact cells. Human tumor cell lines were obtained from ATCC (Rockville Md. USA). In each case, and by methods known to those practiced in the art of cell culture, vaiability was measured after 72 hour incubation with the compounds provided herein using a standard MTS protocol (CellTiter 96® AQueous Non-Radioactive Cell Proliferation Assay).
(§5) Briefly, cells were plated at 10,000-20,000 cells per well in DMEM medium supplemented with 10% fetal bovine serum. The compound plate was set up by aliquoting into column 1 of a 96-well plate, the negative control (DMSO), aliquoting into column 12 the positive control, and titrating the test compound in serial dilutions into columns 2-11. An aliquot from each well of the compound plate was transferred to the plated cells and then incubated at 37° C. in 5% CO2. 20 μL of MTS tetrazolium was added to each well of optical plate and the cells were incubated at 37° C. in 5% CO2 for 2 hours. The absorbance was measured at 490 nm using a microplate reader.

SW480 cells = experiment: MTS viability assay, SW480; assay type: cell-based; details: Homo sapiens, SW480, 72 hour incubation, read-out: IC50 [μM] SW-480 ED50
Excerpt: as §4, §5

CDK1/CyclinB = biological target: T5, CDK1/CyclinB (Homo sapiens, UniProt P06493); experiment: ADP-Glo Kinase Assay, CDK1/CyclinB; assay type: biochemical; details: read-out: % inhibition at 1 μM CDK1/CyclinB; further: ATP at apparent Km (20 µM)
T5 construct: purchased Millipore, Billerica, Mass., USA
Protocol: Testing of the compounds described in this invention was carried out using the ADP-Glo™ Kinase Assay from Promega Corporation (Madison, Wis., USA). […] The ADP-Glo™ Kinase Assay is a luminescent ADP detection assay to measure kinase activity by quantifying the amount of ADP produced during a kinase reaction. The kinase assay is performed in kinase assay buffer (5 mM MOPS, pH 7.5, 5 mM MgCl2, 0.4 mM EDTA, 1.5 mM DTT). Test samples initially dissolved in DMSO at 10 mM were diluted with the assay buffer to 1000 nM. A 30 μL volume/well of a mixture of substrates containing ATP (final ATP concentration in each kinase assay was equal to its apparent ATP Km). […] The assay was performed in two steps: first, after the kinase reaction, an equal volume of ADP-Glo™ Reagent was added to terminate the kinase reaction and deplete the remaining ATP. Second, the Kinase Detection Reagent was added to simultaneously convert ADP to ATP and allowed the newly synthesized ATP to be measured using a luciferase/luciferin reaction. The luminescent signal generated was proportional to the ADP concentration produced and was correlated with kinase activity.

CDK9/CyclinT = biological target: T6, CDK9/CyclinT (Homo sapiens, UniProt P50750); experiment: ADP-Glo Kinase Assay, CDK9/CyclinT; assay type: biochemical; details: read-out: % inhibition at 1 μM CDK9/CyclinT; further: ATP at apparent Km (26 µM)
T6 construct: purchased Proqinase, Freiburg, Germany
Protocol: as §1, §2, §3

T5 sequence (P06493 whole entry): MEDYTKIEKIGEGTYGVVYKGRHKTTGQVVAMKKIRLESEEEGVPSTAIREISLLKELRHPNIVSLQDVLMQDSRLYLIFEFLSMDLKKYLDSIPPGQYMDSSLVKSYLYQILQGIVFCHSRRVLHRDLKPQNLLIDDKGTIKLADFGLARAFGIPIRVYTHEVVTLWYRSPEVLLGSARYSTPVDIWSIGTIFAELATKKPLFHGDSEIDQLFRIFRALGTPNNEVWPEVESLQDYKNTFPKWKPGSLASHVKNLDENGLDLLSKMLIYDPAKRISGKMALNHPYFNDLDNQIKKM
T5 sequence (P14635 whole entry partner): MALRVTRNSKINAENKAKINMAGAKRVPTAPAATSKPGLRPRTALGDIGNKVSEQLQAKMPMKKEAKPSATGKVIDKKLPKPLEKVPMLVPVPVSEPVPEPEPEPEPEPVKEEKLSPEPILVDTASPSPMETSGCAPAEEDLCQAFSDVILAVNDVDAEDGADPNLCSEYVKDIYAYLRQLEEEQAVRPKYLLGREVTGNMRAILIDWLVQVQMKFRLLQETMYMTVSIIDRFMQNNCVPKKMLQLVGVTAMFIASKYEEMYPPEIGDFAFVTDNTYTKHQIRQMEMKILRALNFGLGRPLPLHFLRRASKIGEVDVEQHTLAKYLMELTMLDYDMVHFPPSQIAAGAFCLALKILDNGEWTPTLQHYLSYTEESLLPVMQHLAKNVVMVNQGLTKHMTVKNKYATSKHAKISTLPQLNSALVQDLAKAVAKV
T6 sequence (P50750 whole entry): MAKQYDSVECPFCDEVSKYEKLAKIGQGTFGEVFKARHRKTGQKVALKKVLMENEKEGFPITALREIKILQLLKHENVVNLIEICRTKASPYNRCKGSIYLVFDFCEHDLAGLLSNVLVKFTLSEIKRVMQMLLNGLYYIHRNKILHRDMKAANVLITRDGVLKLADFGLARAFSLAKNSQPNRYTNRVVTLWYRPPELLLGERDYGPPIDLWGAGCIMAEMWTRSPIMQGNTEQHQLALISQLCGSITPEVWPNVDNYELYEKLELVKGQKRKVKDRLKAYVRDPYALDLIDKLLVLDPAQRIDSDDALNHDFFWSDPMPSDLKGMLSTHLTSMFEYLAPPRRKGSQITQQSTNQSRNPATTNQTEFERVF
T6 sequence (O60563 whole entry partner): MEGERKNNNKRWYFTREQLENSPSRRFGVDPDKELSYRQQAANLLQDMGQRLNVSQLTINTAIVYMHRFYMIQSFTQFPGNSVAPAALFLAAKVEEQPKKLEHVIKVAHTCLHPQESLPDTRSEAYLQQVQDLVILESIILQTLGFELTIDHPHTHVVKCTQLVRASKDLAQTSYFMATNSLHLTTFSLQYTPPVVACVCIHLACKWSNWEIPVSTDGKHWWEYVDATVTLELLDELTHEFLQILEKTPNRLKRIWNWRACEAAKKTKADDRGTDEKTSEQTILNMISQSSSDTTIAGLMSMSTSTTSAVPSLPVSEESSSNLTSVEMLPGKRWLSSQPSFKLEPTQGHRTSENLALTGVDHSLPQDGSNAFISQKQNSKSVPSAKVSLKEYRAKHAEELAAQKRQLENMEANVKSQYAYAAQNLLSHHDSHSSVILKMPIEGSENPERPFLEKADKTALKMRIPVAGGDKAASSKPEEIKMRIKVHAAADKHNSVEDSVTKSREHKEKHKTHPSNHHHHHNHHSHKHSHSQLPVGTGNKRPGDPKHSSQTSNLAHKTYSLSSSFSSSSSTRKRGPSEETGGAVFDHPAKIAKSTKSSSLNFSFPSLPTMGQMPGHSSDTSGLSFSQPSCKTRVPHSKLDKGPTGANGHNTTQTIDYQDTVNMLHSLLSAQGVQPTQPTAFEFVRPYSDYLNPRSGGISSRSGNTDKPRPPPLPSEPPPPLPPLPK
T4 sequence (P49336 whole entry): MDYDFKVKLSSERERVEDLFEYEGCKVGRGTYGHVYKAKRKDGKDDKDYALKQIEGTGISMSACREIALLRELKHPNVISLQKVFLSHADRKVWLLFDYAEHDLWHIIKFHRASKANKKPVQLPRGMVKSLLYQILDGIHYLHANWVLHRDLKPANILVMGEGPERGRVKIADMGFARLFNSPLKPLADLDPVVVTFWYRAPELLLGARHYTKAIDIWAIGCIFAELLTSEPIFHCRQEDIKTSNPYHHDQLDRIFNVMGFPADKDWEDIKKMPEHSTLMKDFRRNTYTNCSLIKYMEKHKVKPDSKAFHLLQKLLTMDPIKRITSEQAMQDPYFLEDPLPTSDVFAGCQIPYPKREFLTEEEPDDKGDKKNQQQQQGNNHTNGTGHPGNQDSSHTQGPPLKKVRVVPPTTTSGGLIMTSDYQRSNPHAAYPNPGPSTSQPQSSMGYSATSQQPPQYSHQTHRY
T4 sequence (P24863 whole entry partner): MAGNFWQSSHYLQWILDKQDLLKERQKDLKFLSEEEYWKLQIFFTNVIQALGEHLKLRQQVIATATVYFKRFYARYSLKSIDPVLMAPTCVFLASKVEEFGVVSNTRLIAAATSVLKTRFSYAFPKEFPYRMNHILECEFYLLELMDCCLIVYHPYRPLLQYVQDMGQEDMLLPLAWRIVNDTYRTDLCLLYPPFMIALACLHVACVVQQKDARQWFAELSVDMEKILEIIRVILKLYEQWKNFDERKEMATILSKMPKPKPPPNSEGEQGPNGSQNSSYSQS
T3 sequence (P50613 whole entry): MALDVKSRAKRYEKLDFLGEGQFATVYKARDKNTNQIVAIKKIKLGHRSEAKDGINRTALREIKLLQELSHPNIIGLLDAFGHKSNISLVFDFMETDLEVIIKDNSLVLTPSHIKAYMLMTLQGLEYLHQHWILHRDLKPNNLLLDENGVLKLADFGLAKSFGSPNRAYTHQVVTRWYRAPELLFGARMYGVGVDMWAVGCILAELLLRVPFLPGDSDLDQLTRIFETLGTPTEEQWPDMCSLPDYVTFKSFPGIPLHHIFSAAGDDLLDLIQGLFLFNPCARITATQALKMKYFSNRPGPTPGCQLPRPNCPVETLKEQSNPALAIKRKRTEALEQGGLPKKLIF
T3 sequence (P51946 whole entry partner): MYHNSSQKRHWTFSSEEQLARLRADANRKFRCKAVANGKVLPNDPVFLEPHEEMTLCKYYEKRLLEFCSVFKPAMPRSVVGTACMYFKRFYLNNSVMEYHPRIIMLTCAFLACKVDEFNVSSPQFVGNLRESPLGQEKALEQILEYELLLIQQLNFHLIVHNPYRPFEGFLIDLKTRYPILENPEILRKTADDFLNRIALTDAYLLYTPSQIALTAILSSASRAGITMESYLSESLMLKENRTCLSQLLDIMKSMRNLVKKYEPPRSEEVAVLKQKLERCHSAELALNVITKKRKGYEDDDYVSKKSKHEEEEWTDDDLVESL
T3 sequence (P51948 whole entry partner): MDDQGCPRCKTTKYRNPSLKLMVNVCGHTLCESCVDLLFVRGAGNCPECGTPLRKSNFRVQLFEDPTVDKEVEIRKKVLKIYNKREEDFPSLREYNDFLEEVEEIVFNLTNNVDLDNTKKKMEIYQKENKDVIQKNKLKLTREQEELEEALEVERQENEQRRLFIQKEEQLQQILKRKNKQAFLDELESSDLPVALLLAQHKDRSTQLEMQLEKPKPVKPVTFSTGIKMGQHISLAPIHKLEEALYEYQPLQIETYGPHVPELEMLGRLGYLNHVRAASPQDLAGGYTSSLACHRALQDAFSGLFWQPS
T2 sequence (Q00535 whole entry): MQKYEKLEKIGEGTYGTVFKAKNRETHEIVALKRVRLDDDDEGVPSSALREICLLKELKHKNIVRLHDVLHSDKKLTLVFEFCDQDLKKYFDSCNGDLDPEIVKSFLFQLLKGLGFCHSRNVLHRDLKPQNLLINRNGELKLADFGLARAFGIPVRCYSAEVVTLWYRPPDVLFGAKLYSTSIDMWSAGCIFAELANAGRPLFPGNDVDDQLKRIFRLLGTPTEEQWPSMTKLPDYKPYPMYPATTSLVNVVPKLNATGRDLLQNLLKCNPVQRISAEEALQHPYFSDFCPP
T2 sequence (Q15078 99-307 partner limits assumed): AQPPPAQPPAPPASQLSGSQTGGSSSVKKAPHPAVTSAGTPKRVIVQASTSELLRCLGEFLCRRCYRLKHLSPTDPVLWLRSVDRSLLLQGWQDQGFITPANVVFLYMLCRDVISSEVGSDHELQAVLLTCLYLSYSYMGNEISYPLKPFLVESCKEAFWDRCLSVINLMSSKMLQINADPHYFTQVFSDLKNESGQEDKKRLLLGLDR

Row | SMILES | inhibition at 1 µM (CDK2/CyclinE) [%] | inhibition at 1 µM (CDK5/p25) [%] | inhibition at 1 µM (CDK7/CyclinH/MAT1) [%] | inhibition at 1 µM (CDK8/CyclinC) [%] | IC50 (HCT116 cells) [µM] | IC50 (SW480 cells) [µM] | inhibition at 1 µM (CDK1/CyclinB) [%] | inhibition at 1 µM (CDK9/CyclinT) [%]
1 | CCN(CC)c1nc2c(Br)c(Br)c(Br)c3c2n1CCC3 [Example 3I] | 0 | 14 | 0 | 85 | 6.8 | 5 | 0 | 14
2 | Nc1nc2c(Br)c(Br)c(Br)c3c2n1CCC3 [Example 3J] | 1 | 53 | 0 | 58 | – | – | 0 | 34
3 | CN1CCN(c2nc3c(Br)c(Br)c(Br)c4c3n2CCC4)CC1 [Example 3M] | 2 | 36 | 0 | 75 | 1.2 | 2.3 | 7 | 17
4 | CC1CN(c2nc3c(Br)c(Br)c(Br)c4c3n2CCC4)CCN1 (centres unmarked) [Example 3P] | 5 | 0 | 16 | 88 | 9.3 | 1.4 | 8 | 22
5 | CC1CCCN1c1nc2c(Br)c(Br)c(Br)c3c2n1CCC3 (centres unmarked) [Example 3R] | 0 | 4 | 36 | 100 | – | – | 0 | 4
6 | C[C@H]1CN(c2nc3c(I)c(Br)c(Br)c4c3n2CCC4)CCN1 [Example 3T] | 17 | – | – | 90 | 1.6 | 1.3 | – | 21
7 | CC1(C)CN(c2nc3c(I)c(Br)c(Br)c4c3n2CCC4)CCN1 [Example 3W] | 8 | – | – | 92 | 1.5 | 1.4 | – | 10

Other lines, results leading:

Row | inhibition at 1 µM (CDK2/CyclinE) [%] | inhibition at 1 µM (CDK5/p25) [%] | inhibition at 1 µM (CDK7/CyclinH/MAT1) [%] | inhibition at 1 µM (CDK8/CyclinC) [%] | IC50 (HCT116 cells) [µM] | IC50 (SW480 cells) [µM] | inhibition at 1 µM (CDK1/CyclinB) [%] | inhibition at 1 µM (CDK9/CyclinT) [%] | SMILES
8 | 6 | 0 | 0 | 92 | 1.3 | 1.3 | 0 | 19 | Cc1c(Br)c(Br)c2c3c1nc(C1CCN(C)CC1)n3CCC2 [Example 7A, 7,8-dibromo-9-methyl-2-(1-methylpiperidin-4-yl)-5,6-dihydro-4H-imidazo[4,5,1-ij]quinoline hydrochloride]
9 | 14 | – | – | 88 | 2.6 | 6.3 | – | 6 | CN1CCC(c2nc3c(Br)c(Br)c(Br)c4c3n2CCC4)CC1 [Example 7B]
10 | 7 | 0 | 0 | 83 | 1.1 | 0.9 | 0 | 20 | Cc1c(Br)c(Br)c2c3c1nc(C1CCNCC1)n3CCC2 [Example 7C]
11 | 22 | 5 | 15 | 94 | 0.3 | 0.6 | 43 | 39 | Brc1c(Br)c2c3c(nc(C4CCNCC4)n3CCC2)c1Br [Example 7E]
12 | 0 | – | – | 90 | 1.7 | 4.1 | – | 20 | N#Cc1c(Br)c(Br)c2c3c1nc(N1CCNCC1)n3CCC2 [Example 8B]
